Patent US9006388B2, “Covalent attachment of ligands to nucleophilic proteins guided by non-covalent” (priority 2003, dated 2015)

Key:
calmodulin = calmodulin (Homo sapiens, UniProt P0DP23); assay: Irreversible CAL binding by calmodulin
murine splenocytes = assay: Hapten CAL I reactivity with spleen cells (microscopy, flow cytometry); assay type: cell-based, BALB/c mouse
From the text: BCR covalent reaction with hapten CALs. hapten CALs such as compound I (FIG. 19) react irreversibly with nucleophilic sites in conventional serine proteases and Abs (3,35,44-47). Methods for synthesis of this compound, preparation of B cells from mice, flow cytometric analysis of binding to the cells and electrophoretic measurement of covalent binding to Ig subunits are described in refs 3,35,48. To evaluate the nucleophilic reactivity expressed on the surface of B cells in the preimmune repertoire (viz., the repertoire developed spontaneously without purposeful immunological challenge), viable splenocytes from BALB/c mice were treated with hapten CAL I. The control compound II is identical in structure to hapten CAL I, except that the phosphonate group is not esterified, which results in loss of covalent reactivity with nucleophilic residues (3,35). […] Flow cytometry confirmed the microscopy results. […] In 3 repeat experiments, the proportion of hapten CAL I-stained cells that were positive for the B cell marker CD19 was 82±4% (FIG. 20B). […] Most of the CAL fluorescence was restricted to the surfaces of the B cells (FIG. 20F).

trypsin = biological target: T1, trypsin (Sus scrofa, UniProt P00761); assay: Irreversible hapten CAL binding by trypsin; set-up: species or system porcine; conditions: hapten CAL 100 μM
T1 construct: purchased Sigma type IX

[1] = system: human polyclonal IgG HS-2; assay: Irreversible inhibition of HS-2 IgG-catalyzed [Tyr10-125I]-VIP cleavage; assay type: biochemical; conditions: IgG 2 μM preincubated 16 h, unreacted CAL removed
nine purified proteins = assay: Screening of purified proteins for irreversible hapten CAL binding; conditions: protein 1 μM, CAL 0.5 mM, 16 h, 37° C.
human IgG = assay type: binding
gp120 (MN strain) = biological target: T2, gp120 (MN strain) (Human immunodeficiency virus type 1 group M subtype B, UniProt P05877); assay: Irreversible hapten CAL binding by gp120; set-up: species or system HIV
T2 construct: purchased

IgG = assay type: biochemical, human
[2] = system: monoclonal anti-VIP IgG clone c23.5; assay: Covalent CAL binding by monoclonal anti-VIP IgG c23.5
plasma proteins = assay: CAL reaction in the presence of human plasma; assay type: binding; conditions: human plasma 1% v/v, CAL 10 μM, 1 h
[3] = flow cytometry, 100 μM, 4 hours

T1 sequence (P00761 9-231): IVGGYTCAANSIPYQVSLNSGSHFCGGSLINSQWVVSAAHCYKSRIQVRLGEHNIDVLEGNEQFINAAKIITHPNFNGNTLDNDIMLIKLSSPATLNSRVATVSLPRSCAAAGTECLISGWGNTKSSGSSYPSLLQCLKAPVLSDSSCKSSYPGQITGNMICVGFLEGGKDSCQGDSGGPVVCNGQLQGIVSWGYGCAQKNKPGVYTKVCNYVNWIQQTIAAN

Row | Molecule | second-order rate constant for reaction with calmodulin (calmodulin; calmodulin 1 μM, 3 10 μM or 1 0.5 mM, 37° C.) [M⁻¹ s⁻¹] | loss of viability of cells (trypan blue exclusion) (murine splenocytes) | proportion of hapten CAL I-stained cells positive for CD19 (murine splenocytes; 3 repeat experiments) [%] | cells displaying intense staining (murine splenocytes; UV microscope, 400 lymphocytes counted, N 3) | cells with fluorescence intensities exceeding compound II-treated cells (murine splenocytes; [3]) | subpopulation with very high fluorescence intensity (murine splenocytes; [3]) [%] | velocity of covalent I adduct formation with trypsin (trypsin) [AAU/min] | IC50 [1] [µM] | proteins forming irreversible adducts (nine purified proteins) | velocity for IgG relative to trypsin (human IgG) [fold] | velocity of covalent I adduct formation with IgG (human IgG) [AAU/min] | Kd (gp120 (MN strain)) [µM] | first-order rate constant of covalent adduct formation k2 (gp120 (MN strain); pH 7.4, 37° C.) [min⁻¹] | inhibition of IgG-catalyzed peptide-MCA cleavage (IgG) | Vapp values for the two subunits of anti-VIP Ab [2] | reaction with plasma proteins (plasma proteins) | inhibition of 3-calmodulin binding (calmodulin; VIP 100 μM, 3 10 μM) [%]
1 | N=C(N)c1ccc(C(NC(=O)CCCCCNC(=O)CCCC[C@@H]2SC[C@@H]3NC(=O)N[C@@H]32)P(=O)(Oc2ccccc2)Oc2ccccc2)cc1 (some centres unmarked) [hapten CAL I, Diphenyl N-(6-biotinamidohexanoyl)amino(4-amidinophenyl)methanephosphonate] | 0.00353 ± 0.000283 | No loss of viability | 82±4 | 11±2 | Seventy nine | 14 | 11.9±0.6 | 36 | Seven of the nine | 14.5 | 172.7±14.2 | 710 ± 500 | 0.015 ± 0.007 | inhibited | nearly equivalent | little or no adduct formation | –
2 | VIP: 28 amino acid peptide, devoid of the phosphonate group [reference compound] | – | – | – | – | – | – | – | – | – | – | – | – | – | – | – | – | 65
